± gives the expanded uncertainty stated by the source.
Assay: xn = mol fraction of the nth substance listed
Details: Liquid, Vibrating tube method

COc1cc2c(cc1O)CC1c3c(cc(O)c(OC)c3-2)CCN1C (stereo not given) [boldine] + CCCO
Details	mass density [kg/m3]
352.94 K, 17000 kPa, x1 = 0.0142	793.21 ± 0.69
352.94 K, 18000 kPa, x1 = 0.0018	773.13 ± 0.95
352.94 K, 18000 kPa, x1 = 0.0112	789.5 ± 0.76
352.94 K, 18000 kPa, x1 = 0.0142	794.1 ± 0.69
352.94 K, 19000 kPa, x1 = 0.0018	774.01 ± 0.96
352.94 K, 19000 kPa, x1 = 0.0112	790.38 ± 0.76
352.94 K, 19000 kPa, x1 = 0.0142	794.97 ± 0.69
352.94 K, 20000 kPa, x1 = 0.0018	774.9 ± 0.96
352.94 K, 20000 kPa, x1 = 0.0112	791.19 ± 0.77
352.94 K, 20000 kPa, x1 = 0.0142	795.82 ± 0.7
352.95 K, 1000 kPa, x1 = 0.0046	762.42 ± 0.71
352.95 K, 1000 kPa, x1 = 0.0077	766.39 ± 0.67
352.95 K, 2000 kPa, x1 = 0.0046	763.47 ± 0.71
352.95 K, 2000 kPa, x1 = 0.0077	767.42 ± 0.67
352.95 K, 3000 kPa, x1 = 0.0046	764.53 ± 0.71
352.95 K, 3000 kPa, x1 = 0.0077	768.43 ± 0.68
352.95 K, 4000 kPa, x1 = 0.0046	765.57 ± 0.71
352.95 K, 4000 kPa, x1 = 0.0077	769.48 ± 0.67
352.95 K, 5000 kPa, x1 = 0.0046	766.6 ± 0.72
352.95 K, 5000 kPa, x1 = 0.0077	770.53 ± 0.68
352.95 K, 6000 kPa, x1 = 0.0046	767.63 ± 0.72
352.95 K, 6000 kPa, x1 = 0.0077	771.55 ± 0.68
352.95 K, 7000 kPa, x1 = 0.0046	768.64 ± 0.72
352.95 K, 7000 kPa, x1 = 0.0077	772.55 ± 0.68
352.95 K, 8000 kPa, x1 = 0.0046	769.68 ± 0.72
352.95 K, 8000 kPa, x1 = 0.0077	773.58 ± 0.68
352.95 K, 9000 kPa, x1 = 0.0046	770.67 ± 0.73
352.95 K, 9000 kPa, x1 = 0.0077	774.57 ± 0.69
352.95 K, 10000 kPa, x1 = 0.0046	771.67 ± 0.73
352.95 K, 10000 kPa, x1 = 0.0077	775.56 ± 0.69
352.95 K, 11000 kPa, x1 = 0.0046	772.65 ± 0.73
352.95 K, 11000 kPa, x1 = 0.0077	776.53 ± 0.69
352.95 K, 12000 kPa, x1 = 0.0046	773.64 ± 0.73
352.95 K, 12000 kPa, x1 = 0.0077	777.51 ± 0.7
352.95 K, 13000 kPa, x1 = 0.0046	774.6 ± 0.74
352.95 K, 13000 kPa, x1 = 0.0077	778.48 ± 0.7
352.95 K, 14000 kPa, x1 = 0.0046	775.56 ± 0.74
352.95 K, 14000 kPa, x1 = 0.0077	779.42 ± 0.7
352.95 K, 15000 kPa, x1 = 0.0046	776.52 ± 0.74
352.95 K, 15000 kPa, x1 = 0.0077	780.35 ± 0.71
352.95 K, 16000 kPa, x1 = 0.0046	777.42 ± 0.75
352.95 K, 16000 kPa, x1 = 0.0077	781.26 ± 0.71
352.95 K, 17000 kPa, x1 = 0.0046	778.33 ± 0.75
352.95 K, 17000 kPa, x1 = 0.0077	782.19 ± 0.71
352.95 K, 18000 kPa, x1 = 0.0046	779.23 ± 0.76
352.95 K, 18000 kPa, x1 = 0.0077	783.07 ± 0.72
352.95 K, 19000 kPa, x1 = 0.0046	780.13 ± 0.76
352.95 K, 19000 kPa, x1 = 0.0077	783.97 ± 0.72
352.95 K, 20000 kPa, x1 = 0.0046	780.98 ± 0.77
352.95 K, 20000 kPa, x1 = 0.0077	784.83 ± 0.72
362.91 K, 1000 kPa, x1 = 0.0142	768.06 ± 0.63
362.91 K, 2000 kPa, x1 = 0.0142	769.19 ± 0.63
362.91 K, 3000 kPa, x1 = 0.0142	770.27 ± 0.64
362.91 K, 4000 kPa, x1 = 0.0142	771.41 ± 0.64
362.91 K, 5000 kPa, x1 = 0.0142	772.43 ± 0.64
362.91 K, 6000 kPa, x1 = 0.0142	773.54 ± 0.64
362.91 K, 7000 kPa, x1 = 0.0142	774.62 ± 0.65
362.91 K, 8000 kPa, x1 = 0.0142	775.73 ± 0.65
362.91 K, 9000 kPa, x1 = 0.0142	776.73 ± 0.63
362.91 K, 10000 kPa, x1 = 0.0142	777.77 ± 0.66
362.91 K, 11000 kPa, x1 = 0.0142	778.78 ± 0.66
362.91 K, 12000 kPa, x1 = 0.0142	779.82 ± 0.67
362.91 K, 13000 kPa, x1 = 0.0142	780.81 ± 0.67
362.91 K, 14000 kPa, x1 = 0.0142	781.79 ± 0.67
362.91 K, 15000 kPa, x1 = 0.0142	782.77 ± 0.68
362.91 K, 16000 kPa, x1 = 0.0142	783.72 ± 0.68
362.91 K, 17000 kPa, x1 = 0.0142	784.68 ± 0.69
362.91 K, 18000 kPa, x1 = 0.0142	785.6 ± 0.69
362.91 K, 19000 kPa, x1 = 0.0142	786.52 ± 0.69
362.91 K, 20000 kPa, x1 = 0.0142	787.4 ± 0.7
362.92 K, 1000 kPa, x1 = 0.0046	752.84 ± 0.71
362.92 K, 1000 kPa, x1 = 0.0077	756.81 ± 0.67
362.92 K, 2000 kPa, x1 = 0.0046	753.97 ± 0.71
362.92 K, 2000 kPa, x1 = 0.0077	757.93 ± 0.68
362.92 K, 3000 kPa, x1 = 0.0046	755.11 ± 0.71
362.92 K, 3000 kPa, x1 = 0.0077	759.06 ± 0.68
362.92 K, 4000 kPa, x1 = 0.0046	756.24 ± 0.71
362.92 K, 4000 kPa, x1 = 0.0077	760.16 ± 0.68
362.92 K, 5000 kPa, x1 = 0.0046	757.34 ± 0.72
362.92 K, 5000 kPa, x1 = 0.0077	761.28 ± 0.68
362.92 K, 6000 kPa, x1 = 0.0046	758.46 ± 0.72
362.92 K, 6000 kPa, x1 = 0.0077	762.37 ± 0.69
362.92 K, 7000 kPa, x1 = 0.0046	759.55 ± 0.72
362.92 K, 7000 kPa, x1 = 0.0077	763.46 ± 0.69
362.92 K, 8000 kPa, x1 = 0.0046	760.63 ± 0.72
362.92 K, 8000 kPa, x1 = 0.0077	764.54 ± 0.69
362.92 K, 9000 kPa, x1 = 0.0046	761.7 ± 0.73
362.92 K, 9000 kPa, x1 = 0.0077	765.61 ± 0.71
362.92 K, 10000 kPa, x1 = 0.0046	762.78 ± 0.73
362.92 K, 10000 kPa, x1 = 0.0077	766.65 ± 0.7
362.92 K, 11000 kPa, x1 = 0.0046	763.79 ± 0.73
362.92 K, 11000 kPa, x1 = 0.0077	767.68 ± 0.7
362.92 K, 12000 kPa, x1 = 0.0046	764.85 ± 0.74
362.92 K, 12000 kPa, x1 = 0.0077	768.72 ± 0.7
362.92 K, 13000 kPa, x1 = 0.0046	765.87 ± 0.74
362.92 K, 13000 kPa, x1 = 0.0077	769.74 ± 0.71
362.92 K, 14000 kPa, x1 = 0.0046	766.88 ± 0.74
362.92 K, 14000 kPa, x1 = 0.0077	770.74 ± 0.71
362.92 K, 15000 kPa, x1 = 0.0046	767.86 ± 0.75
362.92 K, 15000 kPa, x1 = 0.0077	771.74 ± 0.72
362.92 K, 16000 kPa, x1 = 0.0046	768.85 ± 0.75
362.92 K, 16000 kPa, x1 = 0.0077	772.72 ± 0.72
362.92 K, 17000 kPa, x1 = 0.0046	769.81 ± 0.75
362.92 K, 17000 kPa, x1 = 0.0077	773.68 ± 0.72
362.92 K, 18000 kPa, x1 = 0.0046	770.76 ± 0.76
362.92 K, 18000 kPa, x1 = 0.0077	774.6 ± 0.73
362.92 K, 19000 kPa, x1 = 0.0046	771.7 ± 0.76
362.92 K, 19000 kPa, x1 = 0.0077	775.55 ± 0.73
362.92 K, 20000 kPa, x1 = 0.0046	772.56 ± 0.77
362.92 K, 20000 kPa, x1 = 0.0077	776.45 ± 0.74
362.93 K, 1000 kPa, x1 = 0.0112	763.51 ± 0.72
362.93 K, 2000 kPa, x1 = 0.0112	764.63 ± 0.72
362.93 K, 3000 kPa, x1 = 0.0112	765.74 ± 0.72
362.93 K, 4000 kPa, x1 = 0.0112	766.83 ± 0.73
362.93 K, 5000 kPa, x1 = 0.0112	767.93 ± 0.72
362.93 K, 6000 kPa, x1 = 0.0112	769 ± 0.73
362.93 K, 7000 kPa, x1 = 0.0112	770.08 ± 0.73
362.93 K, 8000 kPa, x1 = 0.0112	771.14 ± 0.74
362.93 K, 9000 kPa, x1 = 0.0112	772.39 ± 0.74
362.93 K, 10000 kPa, x1 = 0.0112	773.24 ± 0.74
362.93 K, 11000 kPa, x1 = 0.0112	774.29 ± 0.74
362.93 K, 12000 kPa, x1 = 0.0112	775.28 ± 0.75
362.93 K, 13000 kPa, x1 = 0.0112	776.29 ± 0.75
362.93 K, 14000 kPa, x1 = 0.0112	777.28 ± 0.75
362.93 K, 15000 kPa, x1 = 0.0112	778.25 ± 0.75
362.93 K, 16000 kPa, x1 = 0.0112	779.21 ± 0.76
362.93 K, 17000 kPa, x1 = 0.0112	780.16 ± 0.76
362.93 K, 18000 kPa, x1 = 0.0112	781.11 ± 0.76
362.93 K, 19000 kPa, x1 = 0.0112	782.03 ± 0.77
362.93 K, 20000 kPa, x1 = 0.0112	782.93 ± 0.77
362.94 K, 1000 kPa, x1 = 0.0018	746.61 ± 0.91
362.94 K, 2000 kPa, x1 = 0.0018	747.75 ± 0.91
362.94 K, 3000 kPa, x1 = 0.0018	748.91 ± 0.91
362.94 K, 4000 kPa, x1 = 0.0018	750.05 ± 0.91
362.94 K, 5000 kPa, x1 = 0.0018	751.17 ± 0.91
362.94 K, 6000 kPa, x1 = 0.0018	752.28 ± 0.91
362.94 K, 7000 kPa, x1 = 0.0018	753.38 ± 0.91
362.94 K, 8000 kPa, x1 = 0.0018	754.49 ± 0.92
362.94 K, 9000 kPa, x1 = 0.0018	755.54 ± 0.92
362.94 K, 10000 kPa, x1 = 0.0018	756.62 ± 0.92
362.94 K, 11000 kPa, x1 = 0.0018	757.69 ± 0.92
362.94 K, 12000 kPa, x1 = 0.0018	758.72 ± 0.93
362.94 K, 13000 kPa, x1 = 0.0018	759.77 ± 0.93
362.94 K, 14000 kPa, x1 = 0.0018	760.8 ± 0.93
362.94 K, 15000 kPa, x1 = 0.0018	761.77 ± 0.93
362.94 K, 16000 kPa, x1 = 0.0018	762.79 ± 0.93
362.94 K, 17000 kPa, x1 = 0.0018	763.76 ± 0.94
362.94 K, 18000 kPa, x1 = 0.0018	764.68 ± 0.94
362.94 K, 19000 kPa, x1 = 0.0018	765.63 ± 0.95
362.94 K, 20000 kPa, x1 = 0.0018	766.58 ± 0.94

— the NIST ThermoML archive (doi:10.1016/j.jct.2012.03.003)
